Here are results for 68 sequences from the supplement of paper PMC11208160.
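Further: IS621 bridge recombinase in Escherichia coli cells against a fixed T5 target plasmid.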

The data set can be described thus: recombinant UMI read abundance after kanamycin selection (control-corrected) (log10(CPM+1)); higher = more efficient recombination; extreme values may be limits of the assay; sequences stand for … in AGTGCAGAGAAAATCGGCCAGTTTTCTCTGCCTGCAGTCCGCATGCCGTGGGACCCCTTGGGTTCTAACCTGTTGCCTAGATTTATGCAGCGGACTGCCTTTCTCCCAAAGTGATAAACCGG…AGGTTGGTTTCACT; site = the 11-nt donor. Summed up: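 In Escherichia coli, a pool of donor and donor-binding-loop pairs, each with a 12-nt UMI, was tested for the IS621 bridge recombinase. Plating was on IPTG (0.07 mM) plus kanamycin, or without selection, in two replicates. Recombinant UMIs were amplified by PCR across the donor–target junction and sequenced, and counts were reported as log10(CPM+1) after averaging and control-derived scaling.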
For “TAAGCTGCATGGACCGGTTTTCCCGGTAATCCGTATTTGCC (site TAAGCTGCTGG)”, the “recombinant UMI read abundance (log10)” value came out at 1.94.
In the case of “TAAGGTACATGGACCGGTTTTCCCGGTAATCCGTATTTGTA (site TAAGGTACTTA)”, the “recombinant UMI read abundance (log10)” value came out at 2.09.
Consider “TAAGTTGCATGGACCGGTTTTCCCGGTAATCCGTATTTGTG (site TAAGTTGCTCA)”, for which the “recombinant UMI read abundance (log10)” value is 1.4.
Then “TAATAGTCATGGACCGGTTTTCCCGGTAATCCGTATTTGCG (site TAATAGTCTCG)”, with 3.15; and “TAATCACCATGGACCGGTTTTCCCGGTAATCCGTATTTGAG (site TAATCACCTCT)”, with 0.0222; and “TAATGACCATGGACCGGTTTTCCCGGTAATCCGTATTTGCC (site TAATGACCTGG)”, with 0.
“TAATGACCATGGACCGGTTTTCCCGGTAATCCGTATTTGGG (site TAATGAACTCC)”: the “recombinant UMI read abundance (log10)” value came to 0.00176.
As to “TAATGACCATGGACCGGTTTTCCCGGTAATCCGTATTTGGG (site TAATGACCTCC)”, the “recombinant UMI read abundance (log10)” value amounted to 0.00316.
Next, “TAATGACCATGGACCGGTTTTCCCGGTAATCCGTATTTGGG (site TAATGAGCTCC)”: 0.0136; “TAATGACCATGGACCGGTTTTCCCGGTAATCCGTATTTGGG (site TAATGATCTCC)”: 0.00372.
Take “TAATGAGCATGGACCGGTTTTCCCGGTAATCCGTATTTGTG (site TAATGAGCTCA)”: the “recombinant UMI read abundance (log10)” value was determined as 1.16.
Next, “TAATGAGCATGGACCGGTTTTCCCGGTAATCCGTATTTGTG (site TAATGAGCTCC)”: 0.00287.
As for “TAATGAGCATGGACCGGTTTTCCCGGTAATCCGTATTTGTG (site TAATGAGCTCG)”, the “recombinant UMI read abundance (log10)” value turned out to be 1.54.
Take “TAATGAGCATGGACCGGTTTTCCCGGTAATCCGTATTTGTG (site TAATGAGCTCT)”: the “recombinant UMI read abundance (log10)” value was found to be 0.133.
Consider “TAATGTGCATGGACCGGTTTTCCCGGTAATCCGTATTTGGG (site TAATGAGCTCC)”, for which the “recombinant UMI read abundance (log10)” value was 0.0156.
As to “TAATGTGCATGGACCGGTTTTCCCGGTAATCCGTATTTGGG (site TAATGCGCTCC)”, the “recombinant UMI read abundance (log10)” value stood at 0.00475.
As for “TAATGTGCATGGACCGGTTTTCCCGGTAATCCGTATTTGGG (site TAATGGGCTCC)”, the “recombinant UMI read abundance (log10)” value amounted to 0.00856.
As to “TAATGTGCATGGACCGGTTTTCCCGGTAATCCGTATTTGGG (site TAATGTGCTCC)”, the “recombinant UMI read abundance (log10)” value was found to be 0.0867.
In the case of “TAATTGACATGGACCGGTTTTCCCGGTAATCCGTATTTGCT (site TAATTGACTAG)”, the “recombinant UMI read abundance (log10)” value was determined as 2.35.
As to “TAATTGACATGGACCGGTTTTCCCGGTAATCCGTATTTGCT (site TACTTGACTAG)”, the “recombinant UMI read abundance (log10)” value was 1.17.
As to “TAATTGACATGGACCGGTTTTCCCGGTAATCCGTATTTGCT (site TAGTTGACTAG)”, the “recombinant UMI read abundance (log10)” value was 1.39.
Then “TAATTGACATGGACCGGTTTTCCCGGTAATCCGTATTTGCT (site TATTTGACTAG)”, with 0.698.
In the case of “TACAACACATGGACCGGTTTTCCCGGTAATCCGTATTTGTG (site TACAACACTCA)”, the “recombinant UMI read abundance (log10)” value stood at 0.148.
With “TACAATACATGGACCGGTTTTCCCGGTAATCCGTATTTGCA (site TAAAATACTTG)”, the “recombinant UMI read abundance (log10)” value was found to be 0.
Then “TACAATACATGGACCGGTTTTCCCGGTAATCCGTATTTGCA (site TACAATACTTG)”, with 1.18.
“TACAATACATGGACCGGTTTTCCCGGTAATCCGTATTTGCA (site TAGAATACTTG)”: the “recombinant UMI read abundance (log10)” value was determined as 0.
On to “TACAATACATGGACCGGTTTTCCCGGTAATCCGTATTTGCA (site TATAATACTTG)”, for which the “recombinant UMI read abundance (log10)” value came out at 0.
Then “TACAATCCATGGACCGGTTTTCCCGGTAATCCGTATTTGAG (site TACAATCCTCT)”, with 0.531; and “TACAGACCATGGACCGGTTTTCCCGGTAATCCGTATTTGTC (site TACAGACCTGA)”, with 0; and “TACAGCGCATGGACCGGTTTTCCCGGTAATCCGTATTTGCG (site TACAGCGCTCG)”, with 0.00572.
Regarding “TACAGGCCATGGACCGGTTTTCCCGGTAATCCGTATTTGCT (site TACAGGCCTAG)”, the “recombinant UMI read abundance (log10)” value stood at 0.00356.
Then “TACCACCCATGGACCGGTTTTCCCGGTAATCCGTATTTGCT (site TACCACCCTAG)”, with 0.83; and “TACCCGCCATGGACCGGTTTTCCCGGTAATCCGTATTTGCG (site TACCCGCCTCG)”, with 0.26.
For the sequence “TACCCTTCATGGACCGGTTTTCCCGGTAATCCGTATTTGGT (site TAACCTTCTAC)”, the “recombinant UMI read abundance (log10)” value was determined as 0.00354.
Turning to “TACCCTTCATGGACCGGTTTTCCCGGTAATCCGTATTTGGT (site TACCCTTCTAC)”, the “recombinant UMI read abundance (log10)” value came to 0.56.
Regarding “TACCCTTCATGGACCGGTTTTCCCGGTAATCCGTATTTGGT (site TAGCCTTCTAC)”, the “recombinant UMI read abundance (log10)” value turned out to be 0.0115.
As to “TACCCTTCATGGACCGGTTTTCCCGGTAATCCGTATTTGGT (site TATCCTTCTAC)”, the “recombinant UMI read abundance (log10)” value is 0.00909.
Next, “TACCTCTCATGGACCGGTTTTCCCGGTAATCCGTATTTGAC (site TACCTCTCTGT)”: 0.216; “TACCTGACATGGACCGGTTTTCCCGGTAATCCGTATTTGCT (site TACATGACTAG)”: 0.
With “TACCTGACATGGACCGGTTTTCCCGGTAATCCGTATTTGCT (site TACCTGACTAG)”, the “recombinant UMI read abundance (log10)” value was 0.461.
Consider “TACCTGACATGGACCGGTTTTCCCGGTAATCCGTATTTGCT (site TACGTGACTAG)”, for which the “recombinant UMI read abundance (log10)” value worked out at 0.
Then “TACCTGACATGGACCGGTTTTCCCGGTAATCCGTATTTGCT (site TACTTGACTAG)”, with 0.
As to “TACCTTCCATGGACCGGTTTTCCCGGTAATCCGTATTTGGC (site TACCTTCCTGC)”, the “recombinant UMI read abundance (log10)” value came out at 0.
Then “TACGATCCATGGACCGGTTTTCCCGGTAATCCGTATTTGCT (site TACGATCCTAG)”, with 1.96; and “TACGGAGCATGGACCGGTTTTCCCGGTAATCCGTATTTGCC (site AGTCTTACTAA)”, with 0.
In the case of “TACGGCCCATGGACCGGTTTTCCCGGTAATCCGTATTTGTT (site AACGGCCCTAA)”, the “recombinant UMI read abundance (log10)” value amounted to 0.0182.
As to “TACGGCCCATGGACCGGTTTTCCCGGTAATCCGTATTTGTT (site CACGGCCCTAA)”, the “recombinant UMI read abundance (log10)” value stood at 0.00844.
In the case of “TACGGCCCATGGACCGGTTTTCCCGGTAATCCGTATTTGTT (site GACGGCCCTAA)”, the “recombinant UMI read abundance (log10)” value came to 0.00736.
Turning to “TACGGCCCATGGACCGGTTTTCCCGGTAATCCGTATTTGTT (site TACGGCCCTAA)”, the “recombinant UMI read abundance (log10)” value was found to be 0.00191.
For “TACGGCGCATGGACCGGTTTTCCCGGTAATCCGTATTTGCC (site TACGGCGCTGG)”, the “recombinant UMI read abundance (log10)” value came out at 2.01.
Next, “TACGTGACATGGACCGGTTTTCCCGGTAATCCGTATTTGAC (site TACGTGACTGT)”: 1.74; “TACTCCTCATGGACCGGTTTTCCCGGTAATCCGTATTTGGG (site TACTCCTCTCC)”: 0.0269; “TACTCTCCATGGACCGGTTTTCCCGGTAATCCGTATTTGTG (site TACTCTCCTCA)”: 0.011.
Next, “TACTGCACATGGACCGGTTTTCCCGGTAATCCGTATTTGGG (site TACTGCACTCC)”: 0.0129; “TACTTAACATGGACCGGTTTTCCCGGTAATCCGTATTTGCT (site TACTTAACTAG)”: 0.345.
Then “TACTTAACATGGACCGGTTTTCCCGGTAATCCGTATTTGCT (site TACTTCACTAG)”, with 0.00655.
Consider “TACTTAACATGGACCGGTTTTCCCGGTAATCCGTATTTGCT (site TACTTGACTAG)”, for which the “recombinant UMI read abundance (log10)” value was 0.00699.
For the sequence “TACTTAACATGGACCGGTTTTCCCGGTAATCCGTATTTGCT (site TACTTTACTAG)”, the “recombinant UMI read abundance (log10)” value came to 0.
In the case of “TACTTCACATGGACCGGTTTTCCCGGTAATCCGTATTTGCT (site TACTTAACTAG)”, the “recombinant UMI read abundance (log10)” value amounted to 0.0118.
For the sequence “TACTTCACATGGACCGGTTTTCCCGGTAATCCGTATTTGCT (site TACTTCACTAG)”, the “recombinant UMI read abundance (log10)” value stood at 1.9.
Take “TACTTCACATGGACCGGTTTTCCCGGTAATCCGTATTTGCT (site TACTTGACTAG)”: the “recombinant UMI read abundance (log10)” value was 0.0117.
Take “TACTTCACATGGACCGGTTTTCCCGGTAATCCGTATTTGCT (site TACTTTACTAG)”: the “recombinant UMI read abundance (log10)” value is 0.
Take “TACTTGACATGGACCGGTTTTCCCGGTAATCCGTATTTGGT (site TACTTGACTAA)”: the “recombinant UMI read abundance (log10)” value was found to be 0.109.
“TACTTGACATGGACCGGTTTTCCCGGTAATCCGTATTTGGT (site TACTTGACTAC)”: the “recombinant UMI read abundance (log10)” value was 0.209.
As for “TACTTGACATGGACCGGTTTTCCCGGTAATCCGTATTTGGT (site TACTTGACTAG)”, the “recombinant UMI read abundance (log10)” value was 0.
Turning to “TACTTGACATGGACCGGTTTTCCCGGTAATCCGTATTTGGT (site TACTTGACTAT)”, the “recombinant UMI read abundance (log10)” value was 0.179.
With “TAGAAAACATGGACCGGTTTTCCCGGTAATCCGTATTTGGA (site TAGAAAACTTC)”, the “recombinant UMI read abundance (log10)” value came out at 0.76.
With “TAGAACACATGGACCGGTTTTCCCGGTAATCCGTATTTGCA (site TAGAAAACTTG)”, the “recombinant UMI read abundance (log10)” value is 0.
